These results are taken from US20040132740A1, “Novel antibiotics” (priority 2001, published 2004).

What is called melting point is the temperature, or range, at which the solid turns liquid. Broadly, the MIC is the smallest concentration in the dilution series that meets the test's criterion for growth inhibition. The LD50 is the dose expected to kill half of the subjects tested. Lower therefore signals greater toxicity.

Where a name gives a salt, the structure may show the parent alone.

Series [1] deals with gram-positive and gram-negative organisms. Nature of the series: Antibacterial effect compared with ciprofloxacin hydrochloride under the same experimental conditions. It counts as cell-based, E. coli and St. aureus. The following applies: hydrochloride salt. Here is the method: (§1) An aqueous solution of the salts of the compounds reported in this invention namely compound (A) and compound (B) were tested in vitro against E. coli and St. aureus according to an established clinical procedure (Mackie and McCartney: Practical Medical Microbiology, Churchill livingstone, 1996, 14th edition, p159-163).

In another series the test system is Pseudomones aeruginose. Briefly: MIC / effective maintenance dose to control bacterial re-growth, clinically isolated Pseudomones aeruginose. The format is cell-based. The following applies: clinically isolated microorganism. The procedure: (§2) The minimum inhibitory concentration (MIC) of compound (A) and ciprofloxacin were also studied using clinically isolated microorganism staphylococcus aureus and pseudomotias aeruginose.
(§3) The experimental work was carried out according to an established clinical procedure […] (Mackie and McCartney, ibid).

In another series the test system is St. aureus. Nature of the series: Minimum inhibitory concentration in vitro against St. aureus. The format is cell-based. The following applies: Staphylococcus aureus, aqueous solution of hydrochloride salts. Here is the method: as §1
A further series has as its system E. coli. Briefly: Minimum inhibitory concentration in vitro against E. coli. The format is cell-based. The following applies: Escherichia coli, aqueous solution of hydrochloride salts. Here is the method:
as §1

In a further series the test system is Staphylococcus aureus. Nature of the series: MIC / effective maintenance dose to control bacterial re-growth, clinically isolated Staphylococcus aureus. It counts as cell-based. The following applies: clinically isolated microorganism, read-out: effective maintenance dose necessary to control bacterial re-growth (MIC), Staphylococcus aureus. The procedure: as §2, §3

The nature of a further series: LD50 on mice. The following applies: mouse, in vivo.
The next series relates to bacteria. Nature of the series: Further incubation of the positive samples for up to 16 hours (bacterial re-growth). It counts as cell-based. The procedure: as §3

In the case of `CN1CCN(c2cc3c(cc2F)c(=O)ccn3C2CC2)CC1` (as salt: hydrochloride) [Compound (B), 1-cyclopropyl-6-fluoro-1,4-dihydro-4-oxo-7-(1-(4-methyl)piperazinyl)-quinoline], the melting point fell in the range of 238 to 240 °C.

`CN1CCN(c2cc3c(cc2F)c(=O)ccn3C2CC2)CC1` [Compound (B), 1-cyclopropyl-6-fluoro-1,4-dihydro-4-oxo-7-(1-(4-methyl)piperazinyl)-quinoline]: the “antibacterial effect towards gram-positive and gram-negative organisms” value in series [1] is recorded as “better antibacterial effect”.

Take `O=c1ccn(C2CC2)c2cc(N3CCNCC3)c(F)cc12` [Compound (A) HCl salt, 1-cyclopropyl-6-fluoro-1,4-dihydro-4-oxo-7(1-piperazinyl)-quinoline]: the “effective maintenance dose necessary to control bacterial re-growth (MIC), Pseudomones aeruginose” value in the series on Pseudomones aeruginose is 0.05 µg/mL. Besides, the values for the minimum inhibitory concentration (MIC) with St. aureus, in the series with E. coli and with Staphylococcus aureus were 0.08 µg/mL, 0.01 µg/mL and 0.06 µg/mL, respectively. Besides, the “antibacterial effect towards gram-positive and gram-negative organisms” value in series [1] is “better antibacterial effect”. This compound had an LD50 in the series “LD50 on mice” of 28 mg/kg. Also, the “sensitivity and effectiveness as antibacterial agent” value in the series on bacteria (compared with ciprofloxacin hydrochloride) is “more sensitive and effective”. In the series on bacteria (incubation up to 16 hours, dose of 0.0 μg/ml printed for compound (A)), the “bacterial growth after further incubation of the positive samples” value is “very slow bacterial growth”.
